Measurements: ChEMBL document CHEMBL1201862, “PubChem BioAssay data set” (2004)
Activity calls are given as the source filed them.

Key:
[1] = molecular target: Voltage-gated inwardly rectifying potassium channel KCNH2 (Homo sapiens, UniProt Q12809); experiment: concentration-dependent hERG rescue from blockers – cell-based, thallium flux, dose response (AID 2121); format: ADME
[2] = molecular target: 5-hydroxytryptamine receptor 1A (Homo sapiens, UniProt P08908); format: functional
Fatty acid synthase [3] = molecular target: T1, Fatty acid synthase (Homo sapiens, UniProt P49327); experiment: inhibition of human FAS-TE enzyme activity – biochemical, kinetic fluorescence intensity, dose response (AID 624326); format: functional;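 also: rate of fluorescence rise from hydrolysis of a fluorogenic O-methyl fluorescein ester substrate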
T1 sequence (P49327 whole entry): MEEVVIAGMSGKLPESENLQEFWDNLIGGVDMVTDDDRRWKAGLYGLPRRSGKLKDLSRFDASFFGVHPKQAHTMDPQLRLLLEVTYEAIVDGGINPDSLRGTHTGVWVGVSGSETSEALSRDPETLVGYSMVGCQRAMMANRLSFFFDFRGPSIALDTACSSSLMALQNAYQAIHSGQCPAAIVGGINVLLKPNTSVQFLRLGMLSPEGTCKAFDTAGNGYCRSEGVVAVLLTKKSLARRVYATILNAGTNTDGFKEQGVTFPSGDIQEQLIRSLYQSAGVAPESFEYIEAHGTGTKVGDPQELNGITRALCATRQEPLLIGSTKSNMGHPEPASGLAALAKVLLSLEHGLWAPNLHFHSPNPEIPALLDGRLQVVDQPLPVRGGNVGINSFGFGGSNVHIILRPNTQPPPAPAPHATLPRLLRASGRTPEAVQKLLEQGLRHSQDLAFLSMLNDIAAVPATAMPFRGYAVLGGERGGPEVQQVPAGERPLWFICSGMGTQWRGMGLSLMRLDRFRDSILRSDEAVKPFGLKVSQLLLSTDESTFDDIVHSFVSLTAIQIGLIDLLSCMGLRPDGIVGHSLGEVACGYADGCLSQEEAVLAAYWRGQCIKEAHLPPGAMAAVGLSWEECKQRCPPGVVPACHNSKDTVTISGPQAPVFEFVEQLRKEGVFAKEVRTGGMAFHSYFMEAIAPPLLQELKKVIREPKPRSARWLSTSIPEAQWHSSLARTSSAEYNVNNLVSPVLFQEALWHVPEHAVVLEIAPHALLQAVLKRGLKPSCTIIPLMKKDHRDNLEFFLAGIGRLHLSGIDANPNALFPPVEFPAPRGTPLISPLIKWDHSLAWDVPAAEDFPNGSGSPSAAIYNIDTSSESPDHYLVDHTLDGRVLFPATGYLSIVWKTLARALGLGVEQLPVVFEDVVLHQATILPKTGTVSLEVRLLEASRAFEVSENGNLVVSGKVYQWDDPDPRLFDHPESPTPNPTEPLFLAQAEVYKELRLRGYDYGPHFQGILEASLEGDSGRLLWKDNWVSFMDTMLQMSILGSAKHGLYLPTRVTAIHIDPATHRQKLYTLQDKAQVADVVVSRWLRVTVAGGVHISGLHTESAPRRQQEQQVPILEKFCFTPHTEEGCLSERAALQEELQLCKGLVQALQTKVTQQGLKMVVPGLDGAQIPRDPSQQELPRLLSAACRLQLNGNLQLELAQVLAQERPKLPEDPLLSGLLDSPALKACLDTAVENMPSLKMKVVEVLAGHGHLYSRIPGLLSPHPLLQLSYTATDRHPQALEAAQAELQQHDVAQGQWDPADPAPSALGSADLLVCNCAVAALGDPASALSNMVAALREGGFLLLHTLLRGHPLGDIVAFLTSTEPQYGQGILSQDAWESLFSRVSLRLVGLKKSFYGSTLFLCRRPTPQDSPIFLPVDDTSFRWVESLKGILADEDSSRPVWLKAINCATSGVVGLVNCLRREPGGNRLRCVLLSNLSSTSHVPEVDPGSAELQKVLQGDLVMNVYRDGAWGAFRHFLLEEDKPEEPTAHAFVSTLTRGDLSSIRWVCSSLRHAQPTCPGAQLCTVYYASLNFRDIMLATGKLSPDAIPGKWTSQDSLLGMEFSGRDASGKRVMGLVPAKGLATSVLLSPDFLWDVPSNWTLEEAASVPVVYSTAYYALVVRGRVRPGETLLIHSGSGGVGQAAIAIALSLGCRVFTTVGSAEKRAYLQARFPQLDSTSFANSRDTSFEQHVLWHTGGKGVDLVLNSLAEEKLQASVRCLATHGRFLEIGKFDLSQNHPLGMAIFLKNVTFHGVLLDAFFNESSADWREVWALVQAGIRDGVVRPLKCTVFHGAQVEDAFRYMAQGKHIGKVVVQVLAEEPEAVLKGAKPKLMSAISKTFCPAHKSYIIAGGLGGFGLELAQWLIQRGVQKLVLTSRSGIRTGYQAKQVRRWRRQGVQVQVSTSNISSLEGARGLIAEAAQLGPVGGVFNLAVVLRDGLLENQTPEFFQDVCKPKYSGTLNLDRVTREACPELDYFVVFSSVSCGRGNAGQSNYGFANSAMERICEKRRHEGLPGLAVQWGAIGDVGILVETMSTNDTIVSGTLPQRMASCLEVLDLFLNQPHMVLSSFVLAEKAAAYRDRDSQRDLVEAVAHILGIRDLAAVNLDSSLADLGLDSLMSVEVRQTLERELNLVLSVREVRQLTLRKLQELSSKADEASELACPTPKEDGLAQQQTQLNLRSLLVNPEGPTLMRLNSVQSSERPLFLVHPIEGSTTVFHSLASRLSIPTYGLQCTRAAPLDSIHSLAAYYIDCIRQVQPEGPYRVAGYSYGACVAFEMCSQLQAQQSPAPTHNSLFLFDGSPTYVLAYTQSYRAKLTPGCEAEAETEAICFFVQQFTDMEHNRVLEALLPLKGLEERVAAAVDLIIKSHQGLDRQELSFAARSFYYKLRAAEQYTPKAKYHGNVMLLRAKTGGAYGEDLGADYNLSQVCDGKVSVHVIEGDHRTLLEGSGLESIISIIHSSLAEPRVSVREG

Fatty acid synthase [4] = molecular target: T1, Fatty acid synthase; experiment: inhibition of human FAS-TE enzyme activity – biochemical, endpoint fluorescence intensity, uHTS hits, dose response (AID 624327); format: functional;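 also: fluorescence from hydrolysis of an O-methyl fluorescein acyl ester substrate by the enzyme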
Genome polyprotein [5] = molecular target: Genome polyprotein (Hepatitis C virus, UniProt Q2Q167); experiment: disruption of hepatitis C core self-association – biochemical, TR-FRET, dose response (AID 2159); design: species or system Hepacivirus hominis;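 also: blocks dimerization of HCV core protein measured by TR-FRET between tagged core106 pairs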
Genome polyprotein (Hepatitis C virus, UniProt Q2Q167), sequence (Q2Q167 whole entry): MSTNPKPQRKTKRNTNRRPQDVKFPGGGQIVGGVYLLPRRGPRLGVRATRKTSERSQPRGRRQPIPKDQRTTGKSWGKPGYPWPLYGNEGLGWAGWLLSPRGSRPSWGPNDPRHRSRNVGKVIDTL

[6] = molecular target: Polyadenylate-binding protein 1 (Homo sapiens, UniProt P11940); experiment: blockers of PABP interaction with poly(A) – biochemical, fluorescence polarization, […] (AID 2014)
Polyadenylate-binding protein 1, sequence (P11940 whole entry): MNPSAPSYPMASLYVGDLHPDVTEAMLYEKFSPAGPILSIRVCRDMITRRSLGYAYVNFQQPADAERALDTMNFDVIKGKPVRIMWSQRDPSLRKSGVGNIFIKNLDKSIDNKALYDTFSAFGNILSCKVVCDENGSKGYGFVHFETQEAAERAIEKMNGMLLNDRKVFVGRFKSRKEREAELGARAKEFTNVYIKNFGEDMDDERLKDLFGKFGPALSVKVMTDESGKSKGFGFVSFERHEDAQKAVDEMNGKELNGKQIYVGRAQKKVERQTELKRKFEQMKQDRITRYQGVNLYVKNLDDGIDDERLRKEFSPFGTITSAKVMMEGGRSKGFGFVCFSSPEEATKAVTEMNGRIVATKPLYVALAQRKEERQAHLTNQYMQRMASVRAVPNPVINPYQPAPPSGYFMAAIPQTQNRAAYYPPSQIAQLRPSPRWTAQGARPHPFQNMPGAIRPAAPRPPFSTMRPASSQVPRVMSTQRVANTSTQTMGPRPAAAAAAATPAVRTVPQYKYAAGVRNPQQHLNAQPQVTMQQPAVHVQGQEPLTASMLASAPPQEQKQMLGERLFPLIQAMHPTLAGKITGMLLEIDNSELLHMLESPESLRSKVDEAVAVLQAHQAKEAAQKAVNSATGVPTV

Vero [7] = experiment: viability of Vero cells under compound – cytotoxicity control for flavivirus capping enzyme inhibitors (AID 588742); format: functional; settings: Chlorocebus sabaeus
[8] = Luminescence Cell-Based Dose Confirmation HTS to Identify Inhibitors of Platelet Dense Granule Release. [Related pubchem assays: 1663 (Primary HTS), 1678 (Summary of Project)]; format: functional
[9] = fluconazole-exposed Candida albicans growth modulators – fluorescence, retest, confirmation (AID 2467); format: functional, cell-based
[10] = viability loss in Vero cells – cytotoxicity control for Vif-APOBEC3G degradation inhibitor project, dose response (AID 1117358); format: functional; settings: Vero
[11] = molecular target: Luciferin 4-monooxygenase (Photinus pyralis, UniProt P08659); experiment: inhibition of purified Photinus pyralis luciferase – biochemical, luminescence, dose response (AID 1891)
Genome polyprotein [12] = molecular target: Genome polyprotein (dengue virus type 2, UniProt P29990); experiment: flavivirus cap methylation enzyme inhibition – biochemical, confirmation dose response, primary screen (AID 588689); format: functional
Protein Tat = Protein Tat (Human immunodeficiency virus type 1 group M subtype B (isolate HXB2)(HIV-1), UniProt P04608); format: functional;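 also: tat binding to TAR RNA read out by fluorescence polarization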
[13] = molecular target: T2, Mannose-6-phosphate isomerase (Homo sapiens, UniProt P34949); experiment: MPI enzyme activity inhibition – biochemical, fluorescence intensity, coupled assay, primary screen (AID 1209)
T2 sequence (P34949 whole entry): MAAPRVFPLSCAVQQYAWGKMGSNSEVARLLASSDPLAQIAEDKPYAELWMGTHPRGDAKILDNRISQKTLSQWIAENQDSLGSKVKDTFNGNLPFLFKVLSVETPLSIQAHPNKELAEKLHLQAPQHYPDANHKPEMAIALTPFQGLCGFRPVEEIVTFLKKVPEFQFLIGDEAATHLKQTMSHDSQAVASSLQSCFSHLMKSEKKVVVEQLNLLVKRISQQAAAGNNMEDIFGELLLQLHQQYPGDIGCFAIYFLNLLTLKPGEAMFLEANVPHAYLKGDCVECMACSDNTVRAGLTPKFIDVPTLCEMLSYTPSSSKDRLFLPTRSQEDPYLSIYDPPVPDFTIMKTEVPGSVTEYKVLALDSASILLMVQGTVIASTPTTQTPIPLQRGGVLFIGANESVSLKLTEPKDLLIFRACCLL

[14] = molecular target: Eukaryotic translation initiation factor 4H (Homo sapiens, UniProt Q15056); experiment: eIF4H binding inhibition – biochemical, uHTS, fluorescence polarization, translation initiation inhibitor project, primary screen (AID 2012)
[15] = molecular target: Induced myeloid leukemia cell differentiation protein Mcl-1 (Homo sapiens, UniProt Q07820); format: functional
[16] = viability loss in THP-1 monocytes – THP-1 cells, cytotoxicity control for Vif-APOBEC3G degradation inhibitor project, dose response (AID 1117359); format: functional; settings: THP-1
[17] = molecular target: T3, Long-chain-fatty-acid--AMP ligase FadD28 (Mycobacterium tuberculosis, UniProt P9WQ59); experiment: Fluorescence polarization aasay to screen for inhibitors that compete for the binding of FadD28 to a bisubstrate Measured in Biochemical System Using Plate Reader - 2147-01_Inhibitor_Dose_CherryPick_Activity.; format: functional, Mycobacterium tuberculosis H37Rv
T3 sequence (P9WQ59 whole entry): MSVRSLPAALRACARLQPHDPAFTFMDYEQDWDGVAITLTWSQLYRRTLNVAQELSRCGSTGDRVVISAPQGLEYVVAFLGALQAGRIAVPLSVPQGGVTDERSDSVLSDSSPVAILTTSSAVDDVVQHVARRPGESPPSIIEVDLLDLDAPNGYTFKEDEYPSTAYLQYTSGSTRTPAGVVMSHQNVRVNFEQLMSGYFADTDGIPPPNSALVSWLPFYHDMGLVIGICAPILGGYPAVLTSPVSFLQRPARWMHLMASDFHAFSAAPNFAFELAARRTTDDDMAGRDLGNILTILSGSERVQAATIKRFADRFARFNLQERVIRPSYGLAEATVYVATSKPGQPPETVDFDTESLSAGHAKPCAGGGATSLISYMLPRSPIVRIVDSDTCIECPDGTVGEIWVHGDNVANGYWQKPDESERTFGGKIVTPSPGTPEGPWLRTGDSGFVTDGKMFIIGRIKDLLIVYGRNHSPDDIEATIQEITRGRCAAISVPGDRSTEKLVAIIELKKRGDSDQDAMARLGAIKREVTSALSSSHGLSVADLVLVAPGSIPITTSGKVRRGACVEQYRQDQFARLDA

[18] = NIH-3T3 fibroblast cytotoxicity, dose response, cytotoxicity control, cell-based, fluorescence, Alamar Blue, secondary assay (AID 2327); format: functional;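 also: NIH-3T3 mouse fibroblasts cultured with fluconazole at 8 µg/mL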
[19] = viability of HCT116 lacking mutant beta-catenin – cell-based, human colon tumor, dose response (AID 1045); format: functional;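 also: HCT116 colon tumor cells with beta catenin knocked out; cells exposed to compound for 60 hours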
[20] = viability of PTEN-deleted HCT116 cells – cell-based, HCT116 PTEN knockout, dose response (AID 1047); format: functional;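 also: HCT116 colon tumor cells with PTEN knocked out; cells exposed to compound for 60 hours before readout; potency for loss of cell viability measured by luminescence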
[21] = molecular target: T4, Dual specificity protein phosphatase 6 (Rattus norvegicus, UniProt Q64346); experiment: inhibition of rat DUSP6 enzyme activity – biochemical, in vitro, primary screen (AID 425)
T4 sequence (Q64346 whole entry): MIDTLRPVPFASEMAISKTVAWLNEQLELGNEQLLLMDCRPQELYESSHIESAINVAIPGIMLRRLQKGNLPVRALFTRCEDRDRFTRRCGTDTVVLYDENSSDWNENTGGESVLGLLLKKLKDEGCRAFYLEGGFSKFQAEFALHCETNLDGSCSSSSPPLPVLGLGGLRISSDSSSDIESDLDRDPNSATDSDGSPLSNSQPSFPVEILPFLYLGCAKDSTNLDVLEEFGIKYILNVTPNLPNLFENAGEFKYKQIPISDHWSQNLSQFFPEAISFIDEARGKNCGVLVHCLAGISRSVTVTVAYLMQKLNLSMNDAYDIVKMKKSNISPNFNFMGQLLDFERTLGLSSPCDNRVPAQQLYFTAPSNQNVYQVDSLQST

[22] = molecular target: Mitogen-activated protein kinase 10 (Homo sapiens, UniProt P53779); experiment: Dose response biochemical screening assay for inhibitors of c-Jun N-Terminal Kinase 3 (JNK3). [Related pubchem assays: 746 ]
[23] = molecular target: Protein-tyrosine kinase 2-beta (Homo sapiens, UniProt Q14289);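 also: potency of inhibitors of PYK2 kinase phosphorylation of poly-GT substrate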
[24] = Luminescent dose response cell-based high throughput screening assay for inhibitors of the Janus kinase 2 mutant JAK2V617F. [Related pubchem assays: 1446 (Primary screen.), 1521 (Confirmation assay.), 1486 (Counter screen.)]; format: functional
INS1 = experiment: INS-1E survival protection against cytokine death – cell-based, luminescence, retest, dose response (AID 449756); format: functional; settings: Rattus norvegicus;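 also: cell death triggered by IL-1 beta plus TNF-alpha plus IFN-gamma mixture; protective hits raise ATP signal compared with cytokine alone wells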
Vero [25] = experiment: mammalian cell viability reduction – secondary assay, cytotoxicity control for West Nile virus antiviral project, dose response (AID 1650); format: functional; settings: Chlorocebus sabaeus
[26] = HEK-293T viability loss after treatment – luminescence, T-cell screen hits, cytotoxicity control for TCR NF-kB inhibitor project, dose response (AID 489026); format: functional, cell-based;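 also: cells exposed to compound about 14 hours before the viability readout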

5-hydroxytryptamine receptor 1A, sequence (P08908 whole entry): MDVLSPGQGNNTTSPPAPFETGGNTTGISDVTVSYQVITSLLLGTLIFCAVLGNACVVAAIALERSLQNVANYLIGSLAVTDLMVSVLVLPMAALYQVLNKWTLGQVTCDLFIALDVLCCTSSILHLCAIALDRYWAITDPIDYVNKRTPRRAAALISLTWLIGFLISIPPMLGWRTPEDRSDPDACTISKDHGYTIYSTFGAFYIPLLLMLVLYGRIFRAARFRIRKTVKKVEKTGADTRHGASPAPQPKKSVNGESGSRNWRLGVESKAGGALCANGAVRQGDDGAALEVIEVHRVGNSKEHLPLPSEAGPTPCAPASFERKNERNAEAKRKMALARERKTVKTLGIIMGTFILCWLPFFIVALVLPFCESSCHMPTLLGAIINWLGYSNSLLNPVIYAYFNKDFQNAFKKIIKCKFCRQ
Voltage-gated inwardly rectifying potassium channel KCNH2, sequence (Q12809 whole entry): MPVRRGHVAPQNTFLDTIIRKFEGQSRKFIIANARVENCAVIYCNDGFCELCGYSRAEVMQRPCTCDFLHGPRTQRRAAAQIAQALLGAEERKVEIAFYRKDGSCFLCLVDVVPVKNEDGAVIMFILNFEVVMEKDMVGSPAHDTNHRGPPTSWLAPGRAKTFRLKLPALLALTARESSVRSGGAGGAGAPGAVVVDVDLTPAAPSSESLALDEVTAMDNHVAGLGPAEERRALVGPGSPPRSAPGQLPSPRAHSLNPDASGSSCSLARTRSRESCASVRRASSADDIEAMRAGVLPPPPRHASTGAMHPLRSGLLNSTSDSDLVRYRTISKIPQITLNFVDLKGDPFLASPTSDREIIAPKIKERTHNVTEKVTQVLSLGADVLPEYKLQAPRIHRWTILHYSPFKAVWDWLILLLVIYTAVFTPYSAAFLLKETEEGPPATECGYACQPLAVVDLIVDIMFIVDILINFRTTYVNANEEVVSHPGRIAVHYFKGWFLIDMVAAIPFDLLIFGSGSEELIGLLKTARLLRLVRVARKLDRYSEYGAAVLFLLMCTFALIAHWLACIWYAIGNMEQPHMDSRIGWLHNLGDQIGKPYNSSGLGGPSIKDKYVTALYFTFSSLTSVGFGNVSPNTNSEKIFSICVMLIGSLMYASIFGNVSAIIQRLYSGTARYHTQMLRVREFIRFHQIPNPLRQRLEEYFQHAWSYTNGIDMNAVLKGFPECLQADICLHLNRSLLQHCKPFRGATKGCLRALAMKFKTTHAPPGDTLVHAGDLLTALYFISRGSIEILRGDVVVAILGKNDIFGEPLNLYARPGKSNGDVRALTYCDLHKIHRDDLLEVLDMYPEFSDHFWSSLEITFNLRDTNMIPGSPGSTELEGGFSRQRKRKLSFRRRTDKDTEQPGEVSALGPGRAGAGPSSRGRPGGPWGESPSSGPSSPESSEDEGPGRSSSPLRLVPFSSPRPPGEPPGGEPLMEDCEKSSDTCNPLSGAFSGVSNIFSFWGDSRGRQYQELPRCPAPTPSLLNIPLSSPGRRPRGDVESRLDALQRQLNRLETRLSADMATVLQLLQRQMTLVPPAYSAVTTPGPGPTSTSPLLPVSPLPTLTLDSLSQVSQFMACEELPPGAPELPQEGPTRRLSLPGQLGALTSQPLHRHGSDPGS

In the case of `N#Cc1c(NC(=O)c2cc(-n3cnnc3)ccc2Cl)sc2c1CCCC2`, the EC50 [1] was 12.7 µM (active).

For `CN(C)CCOC(=O)c1cn(Cc2ccccc2)c2ccccc12`, the EC50 [2] was > 50 µM (not active).

With `COc1ccc(C2CC(c3cccs3)=NN2C(=O)CSc2nc(=O)n3ccc(C)cc3n2)cc1` (stereo not drawn) the IC50 (Fatty acid synthase [3]) was 7.51 µM (active), the IC50 (Fatty acid synthase [4]) was 8.11 µM (active) and the IC50 (Genome polyprotein [5]) was > 49.8 µM (not active).

With `C/N=c1\scc(-c2cccs2)n1/N=C/c1ccc(O)c(O)c1O` the IC50 [6] was > 100 µM (inactive), the CC50 (Vero [7]) was 13 µM (active) and the EC50 [8] was 1.53 µM (active). The EC50 [9] was > 38 µM (not active), the CC50 [10] was > 40 µM (active) and the EC50 [11] was 0.636 µM (active). The IC50 (Genome polyprotein [12]) was 70.7 µM (active), the IC50 (Protein Tat) was 98.1 µM (inconclusive) and the IC50 [13] was 15.5 µM (active). For the same compound, the IC50 [14] was 59.2 µM (active), the IC50 [15] was 7.08 µM (active) and the CC50 [16] was 12.1 µM (active). For the same compound, the AC50 [17] was > 100 µM (inactive) and the EC50 [18] was > 150 µM (inactive).

For `O=C(Nc1cccc(-c2nc3ccccc3[nH]2)c1)c1cccc(NC(=O)c2ccco2)c1`, the EC50 [19] was 53.7 µM (active), the EC50 [20] was 57.9 µM (active) and the IC50 [21] was 2.5 µM (active). For the same compound, the IC50 [22] was 68.5 µM (not active) and the IC50 [23] was 5.03 µM (active).

With `CCCOc1ccc(C(=O)C(CN2CCOCC2)c2ccccc2)cc1` (stereo not drawn) the IC50 [24] was 0.909 µM (active) and the AC50 (INS1) was > 60 µM (inactive).

In the case of `CCOc1ccc2c(c1)OC(c1ccc(OC)cc1)(C(F)(F)F)NC2=O` (stereo not drawn), the CC50 (Vero [25]) was 13.7 µM (active) and the IC50 [26] was > 80 µM (inactive).
